Laboratory results reported in patent US7396849B2, “4-(Condensed cyclicmethyl)-imidazole-2-thiones acting as α2 adrenergic agonists” (Allergan, Inc., priority 2004, dated 2008).

Legend:
[1] = test system: Chung Model of Neuropathic Pain; test: Chung model of neuropathic pain (tactile allodynia, von Frey hairs); format: in vivo, rats; details: 30 min following drug administration
Source text: A model in accordance with Kim and Chung 1992, Pain […], pp 355-363 (Chung model), for chronic pain (in particular peripheral neuropathy) involves the surgical ligation of the L5 (and optionally the L6) spinal nerves on one side in experimental animals. Rats recovering from the surgery gain weight and display a level of general activity similar to that of normal rats. However, these rats develop abnormalities of the foot, wherein the hindpaw is moderately everted and the toes are held together. More importantly, the hindpaw on the side affected by the surgery appears to become sensitive to pain from low-threshold mechanical stimuli, such as that producing a faint sensation of touch in a human, within about 1 week following surgery. This sensitivity to normally non-painful touch is called “tactile allodynia” and lasts for at least two months. The response includes lifting the affected hindpaw to escape from the stimulus, licking the paw and holding it in the air for many seconds. None of these responses is normally seen in the control group.
Rats are anesthetized before surgery. The surgical site is shaved and prepared either with betadine or Novacaine. Incision is made from the thoracic vertebra XIII down toward the sacrum. Muscle tissue is separated from the spinal vertebra (left side) at the L4-S2 levels. The L6 vertebra is located and the transverse process is carefully removed with a small rongeur to expose the L4-L6 spinal nerves. The L5 and L6 spinal nerves are isolated and tightly ligated with 6-0 silk thread. The same procedure is done on the right side as a control, except no ligation of the spinal nerves is performed.
A complete hemostasis is confirmed, then the wounds are sutured. A small amount of antibiotic ointment is applied to the incised area, and the rat is transferred to the recovery plastic cage under a regulated heat-temperature lamp. On the day of the experiment, at least seven days after the surgery, typically six rats per test group are administered the test drugs by intraperitoneal (i.p.) injection or oral gavage. […], the compounds are formulated in d H2O and given in a volume of 1 ml/kg body weight using an 18-gauge, 3 inch gavage needle that is slowly inserted through the esophagus into the stomach.
Tactile allodynia is measured prior to and 30 minutes after drug administration using von Frey hairs that are a series of fine hairs with incremental differences in stiffness. Rats are placed in a plastic cage with a wire mesh bottom and allowed to acclimate for approximately 30 minutes. The von Frey hairs are applied perpendicularly through the mesh to the mid-plantar region of the rats' hindpaw with sufficient force to cause slight buckling and held for 6-8 seconds. The applied force has been calculated to range from 0.41 to 15.1 grams. If the paw is sharply withdrawn, it is considered a positive response. A normal animal will not respond to stimuli in this range, but a surgically ligated paw will be withdrawn in response to a 1-2 gram hair. The 50% paw withdrawal threshold is determined using the method of Dixon, W. J., Ann. Rev. Pharmacol. Toxicol. 20:441-462 (1980) hereby incorporated by reference. The post-drug threshold is compared to the pre-drug threshold and the percent reversal of tactile sensitivity is calculated based on a normal threshold of 15.1 grams.
All measurements 30 min following drug administration. p value<0.001 compared to pretreatment values.

[2] = biological target: T1, alpha2B adrenergic receptors (Homo sapiens, UniProt P18089); test: RSAT assay (Receptor Selection and Amplification Technology), alpha2B; format: cell-based; details: NIH-3T3 cells, ratio of maximal effect to that of standard full agonist brimonidine, NA = not active below 10 micromolar
T1 construct: expressed in transfected cells; host or cells: NIH-3T3 cells
T1 sequence (P18089 1-450): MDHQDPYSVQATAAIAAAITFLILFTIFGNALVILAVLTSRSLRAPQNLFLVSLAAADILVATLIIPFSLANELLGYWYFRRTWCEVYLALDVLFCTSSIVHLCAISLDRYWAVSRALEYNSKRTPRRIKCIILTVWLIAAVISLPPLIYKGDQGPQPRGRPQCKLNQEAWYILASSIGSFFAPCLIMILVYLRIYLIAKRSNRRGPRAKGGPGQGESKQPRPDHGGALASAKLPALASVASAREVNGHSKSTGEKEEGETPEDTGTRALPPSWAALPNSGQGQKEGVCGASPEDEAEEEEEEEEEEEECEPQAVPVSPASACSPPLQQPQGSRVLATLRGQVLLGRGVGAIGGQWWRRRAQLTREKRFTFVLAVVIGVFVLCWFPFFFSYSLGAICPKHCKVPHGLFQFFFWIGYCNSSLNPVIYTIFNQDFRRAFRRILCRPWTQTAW
Source text: The imidazole-2-thione compounds of the invention are agonists of alpha2 adrenergic receptors. Many compounds of the invention are specific or selective agonists of alpha2B and/or to a lesser extent alpha2C adrenergic receptors, in preference over alpha2A adrenergic receptors. […] 76, pp. 308-311 (incorporated herein by reference) and is also described below. Another reference pertinent to this assay is Conklin et al. (1993) Nature 363:274-6, Receptor Selection and Amplification Technology (RSAT) assay, also incorporated herein by reference.
The RSAT assay measures a receptor-mediated loss of contact inhibition that results in selective proliferation of receptor-containing cells in a mixed population of confluent cells. The increase in cell number is assessed with an appropriate transfected marker gene such as β-galactosidase, the activity of which can be easily measured in a 96-well format. Receptors that activate the G protein, Gq, elicit this response. Alpha2 receptors, which normally couple to Gi, activate the RSAT response when coexpressed with a hybrid Gq protein that has a Gi receptor recognition domain, called Gq/i5.
NIH-3T3 cells are plated at a density of 2×10^6 cells in 15 cm dishes and maintained in Dulbecco's modified Eagle's medium supplemented with 10% calf serum. One day later, cells are cotransfected by calcium phosphate precipitation with mammalian expression plasmids encoding p-SV-β-galactosidase (5-10 μg), receptor (1-2 μg) and G protein (1-2 μg). 40 μg salmon sperm DNA may also be included in the transfection mixture. Fresh media is added on the following day and 1-2 days later, cells are harvested and frozen in 50 assay aliquots. Cells are thawed and 100 μl added to 100 μl aliquots of various concentrations of drugs in triplicate in 96-well dishes. Incubations continue 72-96 hr at 37° C. After washing with phosphate-buffered saline, β-galactosidase enzyme activity is determined by adding 200 μl of the chromogenic substrate (consisting of 3.5 mM o-nitrophenyl-β-D-galactopyranoside and 0.5% nonidet P-40 in phosphate buffered saline), incubating overnight at 30° C. and measuring optical density at 420 nm. The absorbance is a measure of enzyme activity, which depends on cell number and reflects a receptor-mediated cell proliferation. The efficacy or intrinsic activity is calculated as a ratio of the maximal effect of the drug to the maximal effect of a standard full agonist for each receptor subtype. Brimonidine, also called UK14304, the chemical structure of which is shown below, is used as the standard agonist for the alpha2A, alpha2B and alpha2C receptors.
The results of the RSAT assay with several exemplary compounds of the invention are disclosed in Table 1 above together with the chemical formulas of these examplary compounds. NA stands for “not active” at cohcentrations less than 10 micromolar.

[3] = test system: Sprague-Dawley rats; test: Sedative activity (exploratory behavior after i.p. injection); format: in vivo; details: intraperitoneally, up to a dose of 1 mg/kg
Description: To test sedation, six male Sprague-Dawley rats are given up to 3 mg/kg of the test compound in a saline or DMSO vehicle by intraperitoneal injection (i.p.). Sedation is graded 30 minutes following administration of the drug by monitoring locomotor skills as follows.
The Sprague-Dawley rats are weighed and 1 ml/kg body weight of an appropriate concentration (ie. 3 mg/ml for a final dose of 3 mg/kg) drug solution is injected intraperitoneally. Typically the test compound is formulated in approximately 10 to 50% DMSO. The results are compared to controls that are injected with 1 ml/kg saline or 10 to 50% DMSO. Rat activity is then determined 30 minutes after injection of the drug solution. Rats are placed in a dark covered chamber and a digicom analyzer (Omnitech Electronic) quantitates their exploratory behavior for a five-minute period. The machine records each time the rat interrupts an array of 32 photoelectric beams in the X and Y orientation.
Effects on Cardiovascular System

Structure (SMILES) | % Pain Reversal ± SEM ([1]; 10 μg/kg i.p.) | % Pain Reversal ± SEM ([1]; 30 μg/kg i.p.) | % Pain Reversal ± SEM ([1]; 30 μg/kg p.o.) | % Pain Reversal ± SEM ([1]; 300 μg/kg i.p.) | Intrinsic Activity Alpha 2B [2] | sedative effect [3] | % Pain Reversal ± SEM ([1]; 3 μg/kg p.o.) | % Pain Reversal ± SEM ([1]; 10 μg/kg p.o.) | % Pain Reversal ± SEM ([1]; 100 μg/kg p.o.)
CC(c1c[nH]c(=S)[nH]1)c1cccc2ncccc12 (racemic) [Compound 7, 4-(1-quinolin-5-yl-ethyl)-1,3-dihydro-imidazole-2-thione] | 2.9 ± 0.7% | 65.8 ± 6.1% | 77.0 ± 5.1% | 77.7 ± 7.2% | 0.90 | no sedative effect | – | – | –
CC(c1c[nH]c(=S)[nH]1)c1cccc2ncccc12 (single isomer, unassigned; (-)) [Compound 15, (−)-4-(1-quinolin-5-yl-ethyl)-1,3-dihydro-imidazole-2-thione] | – | – | 82.0 ± 6.2% | – | 0.89 | no sedative effect | 58.0 ± 5.3% | 78.0 ± 4.6% | 81.0 ± 8.1%
